In US20220290105A1, “MESENCHYMAL STEM CELLS WITH ENHANCED THERAPEUTIC PROPERTIES” (CELLS FOR CELLS S.A., priority 2019, published 2022):
Entries after “also recorded” stand apart in the source; their conditions may differ. Where two headings read alike, the source gives them in different places.

Columns and labels:
[1] = test system: UC-MSCs; test: Chondrogenic differentiation of UC-MSCs: micromass, Aggrecan qPCR, Collagen II vs Collagen I ratio (FIG. 5); format: cell-based; conditions: basal media; for ratio of Collagen II vs Collagen I production: compared to MSC in basal media (CTL)
Excerpt: FIG. 5. […] UC-MSCs were differentiated towards chondrogenic lineage. […] The relative expression of the proteoglycan Aggrecan, which is typically expressed in hyaline cartilage, was quantified by qPCR. […] When MSC on basal media (CTL) are compared to MSC treated with inhibitors of the ATP-synthase, these treated MSC present chondrogenic behaviour on the ratio of Collagen II vs Collagen I proportion. […] Also, some inhibitors present the same behaviour than MSC in differentiation media (differentiation) (D).

[2] = test system: UC-MSCs; test: Metabolic status (OCR, ECAR, lactate efflux) and surface markers of treated MSCs (FIG. 4); format: cell-based
Excerpt: FIG. 4. […] (A) MSCs treated with ATP-Synthase inhibitors show a diminished oxidative phosphorylation, quantified as oxygen consumption rate (OCR), (B) and an enhanced glycolysis, shown as extracellular acidification rate (ECAR).
In order to determine the efficiency of MSCs treated with ATP-synthase inhibitors, the inventors first evaluated the glycolytic status of UC-MSCs using biochemical parameters such as lactate production and glucose consumption and also if possible, the metabolic status of MSCs treated with ATP-synthase inhibitors was evaluated in real time by measuring the oxygen consumption rate (OCR) or the extra cellular acidification rate (ECAR) by the Seahorse™ technology. Moreover, different functional assays were carried out in order to compare the efficacy of MSCs treated with ATP-synthase inhibitors as compared to non-treated UC-MSCs including evaluation of the differentiation potential towards chondrocytes, viability assays of MSCs, chondroprotection assays, immunosuppression assays and in vivo evaluation using joint inflammation murine models.

[3] = test system: mice with DTH; test: In vivo model of delayed type hypersensitivity (DTH), paw swelling (FIG. 8); conditions: mice treated with MSCs pre-incubated with or without oligomycin
[4] = test system: GVHD mice; test: In vivo model of graft versus host disease (GVHD), Kaplan-Meier survival (FIG. 9); conditions: UC-MSCs pre-treated or not with oligomycin
Excerpt: FIG. 9. […] A) Experimental design of the in vivo model of GVHD. B) Kaplan-Meier plot showing the survival rate of GVHD mice compared to UC-MSCs that were pre-treated or not with oligomycin. N=15 mice per experimental group performed at least 2 times independently—* p<0.05.

[5] = test system: UC-MSCs; test: Transmigration of UC-MSCs through a semipermeable membrane with 8 μM pores (FIG. 11); format: cell-based; conditions: quantified at 8 hours and 24 hours; 5% fetal bovine serum in lower chamber
Procedure: FIG. 11. UC-MSCs pretreated with oligomycin promote their transmigration potential. GlycoStem cells were cultured on a semipermeable membrane with […] diameter pores. Cells were seeded in serum-free medium in the upper chamber, while DMEM medium with 5% fetal bovine serum was added in the lower chamber to induce transmigration of the cells. Cell migration was quantified 8 hours (A and B) and 24 hours (C and D) later. […] N=3 different donors from 3 independent experiments * p<0.05.

[6] = test system: PBMC; test: Coculture of human BM-MSCs, UC-MSCs or MenSC with phytohemaglutinine-activated PBMC, T-CD4 and T-CD8 proliferation by FACS (FIG. 12); format: cell-based; conditions: BM-MSCs, 1 MSCs:20 PBMCs ratio, 4 days
Procedure: FIG. 12. […] Human BM-MSCs, UC-MSCs or MenSC were coculture with freshly isolated PBMC activated with phytohemaglutinine in a 1 MSCs:20 PBMCs ratio. After 4 days proliferation was measured by quantifying the decrease in cell fluorescence on either T-CD4 (A) or T-CD8 (B) cells in PBMCs by FACS. Results are represented as mean and SD of 3 independent experiments using at least 3 different PBMC donors and 2 different BM-MSCs, MenSC and UC-MSCs donors. Statistical analyses used the non-parametric Friedman test comparing more than two groups (*, p<0.05; **, p<0.01; ***, p<0.005).

[7] = test system: human mononuclear cells (PBMC); test: Immunosuppression at different oligomycin pretreatment concentrations, co-culture with human PBMC (FIG. 14); format: cell-based; conditions: pretreatment at 0.1 μg/ml, 1 μg/ml and 10 μg/ml; 4 days co-culture
Procedure: FIG. 14. […] MSC were with different oligomycin concentration (0.1 μg/ml, 1 μg/ml and 10 μg/ml), the media was removed and the cells were washed and cultured with freshly isolated human mononuclear cells (PBMC) that were stained with cell trace violet. Proliferation of CD4+ and CD8+ was quantified after 4 days of co-culturing by flow cytometry and graphed. N=3 PBMC and * p<0.05.
The inventors developed and immunosuppression experiment where the MSCs were pretreated with different concentrations of ATP-Synthase inhibitor, such as Oligomycin, more specifically at 0.1 μg/ml, 1 μg/ml and 10 μg/ml. After the pretreatment, the media with ATP-synthase inhibitor was removed, the MSCs were washed, and the MSC were cultured with freshly isolated human mononuclear cells (PBMC) that were stained with cell trace violet.

[8] = test system: murine CD4; test: Immunosuppression after 6 or 24 hours pretreatment, co-culture with murine CD4 (FIG. 15); format: cell-based; conditions: 3 days co-culture
Procedure: FIG. 15. […] MSC were treated for 6 and 24 hours oligomycin. Then, the media was removed, the cells were washed and these pretreated MSCs were co-cultured during 3 days with freshly isolated murine CD4 that were stained with cell trace violet. Proliferation of CD4+ was quantified by flow cytometry and graphed. N=4 different mice and * p<0.05.
The inventor developed an incubation experiment were the MSC were treated for 6 and 24 hours with an ATP-Synthase inhibitor, such as Oligomycin. After this treatment, the media with ATP-synthase inhibitor was removed, the MSCs were washed, and the MSCs were co-cultured during 3 days with murine freshly isolated CD4 and their effects were compared.

SMILES	ratio of Collagen II vs Collagen I production [1]	metabolic switch towards glycolytic dependent metabolism (ECAR/OCR ratio) [2]	Surface markers of UC-MSC ([2]; after metabolic switch)	metabolic switch towards glycolytic dependent metabolism (ECAR/OCR ratio) ([2]; listed as Oligomycin)	relative expression of the proteoglycan Aggrecan (qPCR) ([1]; compared to untreated control)	generation of three-dimensional tissue (micromass) / spontaneous differentiation into chondrocytes ([1]; no differentiation media, 24Hrs pre-treatment)	limb swelling (Paw Swelling) / inflammation in DTH [3]	survival rate of GVHD mice [4]	transmigration / migratory capacity [5]	immunosuppressive abilities of human MSCs (T-CD4 and T-CD8 proliferation) [6]	suppressive activity (proliferation of CD4+ and CD8+) [7]	suppressive activity (proliferation of CD4+) ([8]; 6 hours pretreatment)	suppressive activity (proliferation of CD4+) ([8]; 24 hours pretreatment)
Oc1ccc(C=Cc2cc(O)cc(O)c2)cc1 [resveratrol, Resveratrol]	fold change in the production of collagen type 2 versus collagen type 1; also recorded: promote the MSC in basal media to behave as MSC that are in a differentiation media	–	–	–	–	–	–	–	–	–	–	–	–
CC[C@H]1/C=C/C=C/C[C@@H](C)[C@H](O)[C@@](C)(O)C(=O)[C@@H](C)[C@H](O)[C@@H](C)C(=O)[C@@H](C)[C@H](O)[C@@H](C)/C=C/C(=O)O[C@@H]2[C@H](C)[C@H](CC1)O[C@]1(CC[C@H](C)[C@H](C[C@@H](C)O)O1)[C@H]2C [oligomycin, Oligomycin]	fold change in the production of collagen type 2 versus collagen type 1	inducing a strongly glycolytic-dependent metabolism	not affected	induces a glycolytic dependent metabolism	increased relative expression; also recorded: increase in the relative expression	even greater than the three-dimensional tissue obtained by using the differentiation media alone; also recorded: spontaneously differentiate into chondrocytes; also recorded: stimulates the spontaneous differentiation towards a functional three-dimensional cartilage	increases the therapeutic potential of MSCs	increases the survival rate	significantly increase their migratory capacity	enhances the immunosuppressive abilities of human MSCs independent on the origin	enhanced suppressive activity that is dose dependent	enhanced the suppressive activity of MSCs	enhanced suppressive activity; also recorded: highest enhancement of the MSCs suppression activity
